{"source": "patent US20230132823A1", "about": "“BI-FUNCTIONAL COMPOUNDS AND METHODS FOR TARGETED UBIQUITINATION OF ANDROGEN RECEPTOR” (MONTELINO THERAPEUTICS, INC., priority 2020, published 2023)", "assay_type_in_all_cases": "cell-based, human", "key": {"22Rv1": {"tested_on": "22Rv1", "assay": "LDH assay for non-specific cytotoxicity in 22Rv1", "settings": "22Rv1, up to 20 μM, six days (0.01, 0.1, 1, 10 and 20 μM tested)", "experimental": "(§1) Apoptosis Assay. An apoptosis assay is carried out using the Thermo Fisher ApoDETECT Annexin V-FITC kit following the protocol recommended by the vendor. Briefly, after treatment with 1 μM of Test Compound for 3 to 24 hours, cells are fixed with 80% ethanol and washed with PBS three times. Then, fixed cells are incubated with Annexin V-FITC in PBS solution for 30 minutes at room temperature. After washing three times with PBS, cells are treated with 300 nM DAPI in PBS for 5 minutes at room temperature. Finally, after washing three times with PBS, mounting solution is added and the cells are visualized using immunofluorescence microscopy. Next, a TUNEL assay is performed using Promega DeadEnd Fluorometric TUNEL system. After treatment with Test Compound and fixation as described above in the Annexin-V experiment, 100 μl of equilibration buffer is incubated for 10 min. Then, 50 μl of TdT reaction mix is added and incubated for 60 min at 37° C. in a humidified chamber. Finally, stop solution is added and samples are mounted on slides using mounting medium. To assess non-specific cytotoxicity, an LDH assay kit is used."}, "22Rv1 cells": {"tested_on": "22Rv1 cells", "assay": "Apoptosis assay (annexin-V, TUNEL) in 22Rv1", "settings": "22Rv1, 1 μM", "experimental": "as §1, with “Briefly, after treatment with 1 μM of Test Compound for 3 to 24 hours, cells are fixed with 80% ethanol and washed with PBS three times.” left out"}, "[1]": {"tested_on": "22Rv1 cells transfected with AR-V7 or AR-FL", "assay": "Proliferation of 22Rv1 cells transfected with AR-V7 and/or AR-FL", "settings": "1 μM", "source_text": "Transient Transfections. One μg of a plasmid containing cDNA of AR-V7 or AR-FL is transfected into indicated the CaP cell lines on 6-well plates. Three μl of lipofectamine 3000 is used for each transfection."}, "[2]": {"tested_on": "SAT-resistant CaP cell lines", "assay": "Cell proliferation assay in twelve SAT-resistant CaP cell lines", "settings": "1 μM, 6 days; all lines except 22Rv1-EnzR", "experimental": "Cell Culture. Human CaP cell lines, LNCaP, 22Rv1, VCaP, PC3, and DU145 are obtained from the American Type Culture Collection (ATCC) and maintained in the standard culture media: RPMI-1640 supplemented with 10% fetal bovine serum (FBS). LNCaP, 22Rv1, and VCaP are androgen-responsive cell lines, while PC3 and DU145 are not. To establish SAT resistant CaP cell lines, LNCaP, 22Rv1, and VCaP are treated continuously with 10-50 μM abiraterone, apalutamide, darolutamide, or enzalutamide. After 3-6 months, stable cell lines are established and designated as LNCaP-Abi^R, LNCaP-Apa^R, LNCaP-Daro^R, LNCaP-Enz^R, VCaP-Abi^R, VCaP-Apa^R, VCaP-Daro^R, VCaP-Enz^R, 22Rv1-Abi^R, 22Rv1-Apa^R, 22Rv1-Daro^R and 22Rv1-Enz^R. Unless otherwise specified, the standard culture media for these SAT-resistant cell lines included 10 μM of their respective SAT. For the proteasome inhibitor study, the inhibitors MG132 and Epoxomicin are used. The E3 ligase inhibitors Heclin, Nutlin 3a, Thalidomide, and VH298 are used. Cell lines obtained from ATCC are confirmed by checking their morphology using optical microscopy, establishing baselines for cell proliferation, verifying species of origin using isoenzymology, and characterizing the cell's DNA fingerprint using short tandem repeat (STR) profiling. Mycoplasma contamination is also assessed using a PCR based detection system. […]"}, "LNCaP": {"tested_on": "LNCaP", "assay": "LNCaP cell proliferation", "settings": "androgen-responsive cell line; 1 μM", "experimental": "(§2) The human prostate cancer cell line, 22Rv1 has been reported to express a high level of AR-V7. Thus, 22Rv1 was seeded at 50,000 cells/well on a 24-well plate in quadruplicates and treated with test compound in concentrations ranging up to 20 μM for four days. Standard culture media was RPMI-1640 supplemented with 10% fetal bovine serum. The test compound initially was dissolved in DMSO at 50 mM. This stock solution was then diluted as needed for the indicated concentrations. At the end of the four-day period, cells were harvested using 1% trypsin and counted using an automated cell counter.\n(§3) Cell Culture. Human CaP cell lines, LNCaP, 22Rv1, VCaP, PC3, and DU145 are obtained from the American Type Culture Collection (ATCC) and maintained in the standard culture media: RPMI-1640 supplemented with 10% fetal bovine serum (FBS). LNCaP, 22Rv1, and VCaP are androgen-responsive cell lines, while PC3 and DU145 are not. To establish SAT resistant CaP cell lines, LNCaP, 22Rv1, and VCaP are treated continuously with 10-50 μM abiraterone, apalutamide, darolutamide, or enzalutamide. […] Mycoplasma contamination is also assessed using a PCR based detection system."}, "DU145": {"tested_on": "DU145", "assay": "DU145 cell proliferation", "settings": "AR-negative cell line; 1 μM", "experimental": "as §2, §3"}}}
{"smiles": "Cc1ncsc1-c1ccc([C@H](C)NC(=O)[C@@H]2C[C@@H](O)CN2C(=O)[C@@H](NC(=O)CCCCNC(=O)COc2c(-c3csc(N4CCOCC4)n3)ccc(F)c2F)C(C)(C)C)cc1", "note": "[Example 16, (2S,4R)-1-((S)-2-(5-(2-(2,3-difluoro-6-(2-morpholinothiazol-4-yl)phenoxy)acetamido)pentanamido)-3,3-dimethylbutanoyl)-4-hydroxy-N-((S)-1-(4-(4-methylthiazol-5-yl)phenyl)ethyl)pyrrolidine-2-carboxamide]", "values": [{"measurement": "non-specific cytotoxic effect, lactate dehydrogenase (LDH) assay", "setting": "22Rv1", "result": "no non-specific cytotoxic effect"}, {"measurement": "apoptosis, TUNEL assay", "setting": "22Rv1 cells", "result": "confirmed"}, {"measurement": "apoptosis, annexin-V assay", "setting": "22Rv1 cells; 0 to 48 hours, starts approximately three hours after treatment, increases through 48 hours", "result": "increase in annexin-V staining"}, {"measurement": "inhibitory effect after transfection of both AR-V7 and AR-FL into 22Rv1 cells", "setting": "[1]; both transfected", "result": "completely abrogated"}, {"measurement": "inhibitory effect after transfecting AR-V7 or AR-FL into 22Rv1 cells", "setting": "[1]; single transfection", "result": "partial resistance"}, {"measurement": "cell counts of SAT-resistant CaP cell lines, % of control", "setting": "[2]", "result": "6-80 % of control"}, {"measurement": "effect on proliferation of LNCaP", "setting": "LNCaP", "result": "inhibits the proliferation"}, {"measurement": "effect on DU145 cells", "setting": "DU145", "result": "not affected"}]}
